Laboratory results published in ChEMBL document CHEMBL2448688, “Selection and optimization of hits from a high-throughput phenotypic screen against Trypanosoma cruzi. Exported from HEOS 25-Oct-2013. See also related datasets CHEMBL3137440 and CHEMBL3137386”.
Converted amounts (≈) assume the structure as drawn. “And” between values parts separate entries of the source, which are not always exact repeats. Equal entries are not always repeated.

Assays:
in vitro [1] = conditions: human, microsomes, t (1 / 2)
[2] = DNDI: Solubility in 0.01M HCl at pH 2 determined by nephelometry; conditions: 0.01M HCl, pH 2, Kinetic
[3] = DNDI: Metabolism; assay type: ADME, Microsome; conditions: rat, microsomes
in vitro [4] = conditions: human, microsomes
in vitro [5] = conditions: rat, microsomes
in vitro [6] = conditions: rat, microsomes; remark: listed apart in the source
in vitro [7] = conditions: human, microsomes, EH
L6 = assay: (§1) DNDI: Cytotoxicity in vitro, against rat skeletal myoblast (L-6) cells; conditions: L-6 cells (skeletal myoblasts)
[8] = as §1; conditions: L-6 cells (skeletal myoblasts), IC50
[9] = DNDI: Lipophilicity (gLogD) at pH 3; conditions: buffer, pH 3, logD
[10] = DNDI: Lipophilicity (gLogD) at pH 7.4; conditions: buffer, pH 7.4, logD
Trypanosoma cruzi [11] = assay: (§2) DNDI: Chagas in Vitro; assay type: functional, Tulahuen C4 (LacZ)
Cytochrome P450 3A4 [12] = target: T1, Cytochrome P450 3A4 (Homo sapiens, UniProt P08684); assay: DNDI: Human CYP3A4 inhibition determined using 6b-hydroxylation of testosterone
T1 sequence (P08684 whole entry): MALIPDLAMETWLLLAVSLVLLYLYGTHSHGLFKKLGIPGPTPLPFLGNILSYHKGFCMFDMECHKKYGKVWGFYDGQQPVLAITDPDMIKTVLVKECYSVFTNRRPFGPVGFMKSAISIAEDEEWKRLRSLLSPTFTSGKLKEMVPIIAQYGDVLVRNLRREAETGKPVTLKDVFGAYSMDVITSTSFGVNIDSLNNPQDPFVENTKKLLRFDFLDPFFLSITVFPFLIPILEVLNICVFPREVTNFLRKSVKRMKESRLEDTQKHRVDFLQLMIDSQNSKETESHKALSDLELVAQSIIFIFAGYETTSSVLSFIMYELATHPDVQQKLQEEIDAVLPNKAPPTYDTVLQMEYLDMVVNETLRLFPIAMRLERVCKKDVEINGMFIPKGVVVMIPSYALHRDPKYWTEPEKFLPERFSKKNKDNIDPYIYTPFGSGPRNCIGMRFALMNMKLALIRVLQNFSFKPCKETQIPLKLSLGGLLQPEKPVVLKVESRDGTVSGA

in vitro [13] = conditions: rat, microsomes; remark: listed apart in the source
[14] = test system: Trypanosoma brucei rhodesiense; assay: DNDI: HAT in Vitro; assay type: functional, organism-based, ATCC 30027
Cytochrome P450 3A4 [15] = target: T1, Cytochrome P450 3A4; assay: DNDI: CYP Inhibition; assay type: ADME
Trypanosoma cruzi [16] = assay: as §2; assay type: functional, organism-based, Tulahuen C4 (LacZ)
[17] = DNDI: Solubility in phosphate buffer at pH 6.5 determined by nephelometry; conditions: phosphate buffer, pH 6.5, Kinetic
CYP3A4 [18] = target: T2, CYP3A4 (Homo sapiens, UniProt P08684); assay: DNDI: Human CYP3A4 inhibition at 1 uM determined using 6b-hydroxylation of testosterone; conditions: probe testosterone (6b-hydroxylation)
T2 sequence (P08684 whole entry): as above

in vitro [19] = conditions: mouse, microsomes
in vitro [20] = conditions: mouse, microsomes; remark: listed apart in the source
CYP3A4 [21] = target: T2, CYP3A4; assay: DNDI: Human CYP3A4 inhibition at 10 uM determined using 6b-hydroxylation of testosterone; conditions: probe testosterone (6b-hydroxylation)
in vitro [22] = conditions: mouse, microsomes; remark: listed apart in the source
Trypanosoma cruzi [23] = assay: DNDI: Chagas in vivo at 50 mg/kg, 20 days 1x; assay type: functional, Tulahuen Swiss po
Trypanosoma cruzi [24] = assay: DNDI: Chagas in vivo at 20 mg/kg, 20 days 2x; assay type: functional, Tulahuen Swiss po
[25] = DNDI: Protein binding in mouse plasma
[26] = DNDI: Protein binding in rat plasma; assay type: ADME, cell-free; conditions: read-out: % bound (converted)
Leishmania donovani = assay: DNDI: Leish macro in vitro at 10 uM; assay type: functional; conditions: MHOM/ET/67/L82
in vitro [27] = conditions: rat, hepatocytes
[28] = (§3) DNDI: Stability, 4 hour; assay type: ADME, cell-free; conditions: mouse, plasma
[29] = as §3; assay type: ADME, tissue-based; conditions: mouse, blood
[30] = DNDI: Cytotoxicity in vitro, against human lung fibroblast (MRC-5) cells; conditions: MRC-5 cells (lung fibroblasts)
Leishmania infantum = assay: DNDI: Leish (macro) in Vitro; assay type: functional, organism-based, MHOM/MA(BE)/67
[31] = Trypanosoma cruzi, Tulahuen C4 (LacZ)

Row | Structure (SMILES) | half-life (in vitro [1]) [min] | solubility kinetic [2] [µg/mL] | microsomal CLint (in vitro [4]) [µL/min/mg] | half-life (in vitro [6]) [min] | hepatic extraction ratio (in vitro [7]) | chromatographic logD [9] | chromatographic logD [10] | IC90 (Trypanosoma cruzi [11]) | IC50 (Cytochrome P450 3A4 [12]) [µM] | microsomal CLint (in vitro [13]) [µL/min/mg] | IC50 (Trypanosoma cruzi [16]) | IC50 (Trypanosoma cruzi [16]; [31]) [µM] | solubility kinetic [17] [µg/mL] | IC50 ([14]; Trypanosoma brucei, ATCC 30027) [µM] | IC90 (Trypanosoma cruzi [11]; [31]) [µM] | half-life (in vitro [19]) [min] | microsomal CLint (in vitro [22]) [µL/min/mg] | IC50 (L6) [µM] | IC50 [8] [µM] | other results
1 | CO/N=C(\C)c1ccc(-n2ccnc2)c(NC(=O)c2ccc(-c3ccccn3)s2)c1 | 57 | > 100 | 30 | 27 | 0.54 | 2.3 | 3.1 | > 0.1 µM and 0.0128 µM | 2 | 64 | – | – | – | – | – | – | – | 72.5 | 65.6 | CLblood [3]: 42 mL/min/kg; hepatic extraction ratio (in vitro [5]): 0.62
2 | O=c1c2ccccc2nc(-c2ccc(-c3ccccc3)cc2)n1Cc1cccnc1 | 36 | > 100 | 48 | – | 0.73 | 3.4 | 3.8 | 0.257 µM and > 0.1 µM | – | – | 0.026 µM | 0.0255 | 1.6 (≈ 4.11 µM) | – | – | – | – | 19.4 | 16.1 | IC50 [14]: 23.3 µM and > 10 µM; IC50 (Cytochrome P450 3A4 [15]): > 20 µM
3 | OC(COc1ccc2cc(Br)ccc2c1)Cn1ccnc1 (stereo not drawn) | – | – | – | – | – | – | – | – | – | – | – | 0.03 | – | > 10 | 0.193 | – | – | – | 65.9 | IC50 (Cytochrome P450 3A4 [15]): 0.7 µM
4 | CO/N=C(\C)c1ccc(-n2ccnc2)c(NC(=O)c2cnc(-c3ccccc3)nc2)c1 | 73 | > 100 | 24 | 38 | – | 2.6 | 3.4 | 0.0105 µM and 0.0259 µM | – | 46 | 0.003 µM and 0.008 µM | – | < 1.6 | > 10 | – | 52 | 34 | – | > 100 | PCR cure rate (Trypanosoma cruzi [23]): 0%; Parasitemia clearance after immunosuppression (Trypanosoma cruzi [23]): 0%; Parasitemia clearance after treatment (Trypanosoma cruzi [23]): 60%; PCR cure rate (Trypanosoma cruzi [24]): 0%; Parasitemia clearance after immunosuppression (Trypanosoma cruzi [24]): 60%; Parasitemia clearance after treatment (Trypanosoma cruzi [24]): 80%; fraction unbound [25]: 0.028; fraction unbound [26]: 0.014; inhibition at 10 µM (Leishmania donovani): 47.3%; CLhep predicted (in vitro [27]): 26.7 mL/min/kg
5 | CC(C)N(C)CC(O)COc1ccc2cc(Br)ccc2c1 (stereo not drawn) | > 250 | > 100 | < 7 | – | < 0.23 | 2.6 | 3.6 | 8.95 µM and 8.79 µM and > 10 µM | > 20 | – | 6.4 µM and 5.43 µM and 5.75 µM and 5.78 µM and 6.57 µM | > 10 | > 100 | – | 8.78 | – | – | 34.8 | 19.2 | IC50 [14]: 0.507 µM and 1.55 µM; IC50 [30]: > 64 µM; IC50 (Leishmania infantum): 6.73 µM and 2.38 µM
6 | CN(CC(O)COc1ccc2cc(Br)ccc2c1)C1CCCCC1 (stereo not drawn) | 132 | > 100 | 13 | – | 0.34 | 2.6 | 3.6 | 7.84 µM | > 10 | – | 4.64 µM | 4.55 | > 100 | – | 8.48 | – | – | 17 | 16.6 | inhibition at 1 µM (CYP3A4 [18]): 5%; IC50 [30]: > 64 µM; IC50 (Leishmania infantum): 1.68 µM and 2 µM; IC50 (Leishmania infantum; Leishmania infantum, MHOM/MA(BE)/67): 1.26 µM; inhibition at 10 µM (CYP3A4 [21]): 11%

Further molecules by falling IC50 (Trypanosoma cruzi [16]; [31]), results first:

Row | half-life (in vitro [1]) [min] | solubility kinetic [2] [µg/mL] | microsomal CLint (in vitro [4]) [µL/min/mg] | half-life (in vitro [6]) [min] | hepatic extraction ratio (in vitro [7]) | chromatographic logD [9] | chromatographic logD [10] | IC90 (Trypanosoma cruzi [11]) | IC50 (Cytochrome P450 3A4 [12]) [µM] | microsomal CLint (in vitro [13]) [µL/min/mg] | IC50 (Trypanosoma cruzi [16]) | IC50 (Trypanosoma cruzi [16]; [31]) [µM] | solubility kinetic [17] [µg/mL] | IC50 ([14]; Trypanosoma brucei, ATCC 30027) [µM] | IC90 (Trypanosoma cruzi [11]; [31]) [µM] | half-life (in vitro [19]) [min] | microsomal CLint (in vitro [22]) [µL/min/mg] | Structure (SMILES) | IC50 (L6) [µM] | IC50 [8] [µM] | other results
7 | 58 | > 100 | 30 | 40 | – | 3.1 | 3.9 | – | – | 43 | – | 0.0204 | < 1.6 | – | 0.065 | 56 | 31 | CO/N=C(\C)c1ccc(-n2ccnc2)c(NC(=O)c2ccc(-c3ccccc3)cc2)c1 | – | > 100 | CLblood [3]: 35 mL/min/kg; CLhep predicted (in vitro [27]): 24.5 mL/min/kg
8 | 123 | > 100 | 14 | – | 0.35 | 1.6 | 2.1 | – | > 10 | – | – | 0.0135 | – | – | 0.027 | 81 | 21 | CC(=O)N(Cc1c[nH]cn1)c1ccc(-c2nc3ccccc3s2)cc1 | – | 63.4 | inhibition at 1 µM (CYP3A4 [18]): 0.3%; hepatic extraction ratio (in vitro [20]): 0.32; inhibition at 10 µM (CYP3A4 [21]): 28.1%
9 | 160 | – | 11 | – | 0.38 | – | – | – | > 20 | – | – | 0.003 | – | > 10 | 0.037 | – | – | CCOC(=O)c1ccc(-n2ccnc2)c(NC(=O)c2cnc(-c3ccccc3)nc2)c1 | – | > 100 | remaining at 4 h [28]: 1.8%; remaining at 4 h [29]: 0.4%
